Data set [1] concerns healthy mammary epithelial cells. Briefly: Cytocidal effect in healthy cells. The class given is cell-based. Conditions: equivalent free doxorubicin concentration. An excerpt: The next question studied was whether conjugated doxorubicin still maintained its cytotoxic effect.
The nature of data set [2]: Release from dendrimer:dextran hydrogel scaffold. It is filed as physicochemical. An excerpt:
The hydrogel matrix included a 10% solid content PAMAM dendrimer, generation 5, with 75% of the amines of its surface groups oxidized to alcohols (i.e., 32 amines and 96 alcohols), and a 10% solid content dextran aldehyde (10 kDa weight average molecule weight, with 50% oxidation to aldehydes).
Free doxorubicin was released in approximately 6 days, owing to the interactions between amine groups in the drug and aldehyde groups in the dextran. When amines in the doxorubicin structure were blocked with aconitic anhydride, the drug was released rapidly through the large pores of the hydrogel in 48 hours.

A short description of data set [3]: In vivo organ distribution after systemic and local delivery. Also noted: species or system mice. The procedure:
An analysis was conducted of the organ distribution of both the dendritic pro-drugs and free doxorubicin after local and systemic administration. Fluorescently labelled dendritic pro-drugs of Example 5 or free drug were injected systemically and their distributions were assessed after 24 hours.

The test system of data set [4] is triple negative breast cancer (TNBC). Briefly: In vivo therapeutic efficacy, murine model of triple negative breast cancer.
Data set [5] has as its target T1, EGFR (Homo sapiens, UniProt P00533).
T1 construct: endogenous in cells; host or cells: MDA-MB-468
Nature of the data set: EGF/EGFmp competition for the receptor, EGFR activation by Western Blot. It is filed as cell-based. Conditions: mix of EGF and peptide, EGFR-overexpressing cancer cells.

In data set [6] the target is T1, EGFR. Briefly: EGFR pathway activation (EGFR phosphorylation) by Western Blot. It is filed as cell-based. An excerpt: EGFR signaling pathway is believed to induce growth, differentiation, migration, adhesion, and cell survival through various interacting signaling pathways. It is believed to be critical for the design of chemotherapeutic pro-drugs utilizing this receptor to ensure this pathway was not triggered, leading to further cancer cell proliferation and survival, which could counteract the effects of the chemotherapeutic drug.
Actin was used as an internal control in all gels.

Where [7] appears, read: local in hydrogel scaffold, 72-hour post-implantation.

As to `COc1cccc2c1C(=O)c1c(O)c3c(c(O)c1C2=O)C[C@@](O)(C(=O)CO)C[C@@H]3O[C@H]1C[C@H](N)[C@H](O)[C@H](C)O1` [free doxorubicin, doxorubicin], the cell death entry in data set [1] was “over 90%”. Moreover, the “time to release from hydrogel” value in data set [2] is “approximately 6 days”. Further, the “circulating level in blood” value in data set [3] (after local delivery) is recorded as “No circulating drug or dendritic pro-drug were observed in the blood”. Further, the “level in blood (fluorescence)” value in data set [3] (after systemic administration) is listed as “not statistically different than that of the untreated control”. In addition, in data set [3] (setting [7]), the “accumulation in other organs” value is listed as “no accumulation was observed in other organs” and the “tumor accumulation, local therapy versus systemic administration” value is given as 5 times. Besides, the “accumulation in other organs (spleen, heart, lungs, liver, kidneys)” value in data set [3] (systemic injection, 24 hours) is reported as “no significant accumulation was observed in any other organ”. Besides, the “tumor shrinkage compared to untreated control” value in data set [4] (local in hydrogel, multiple doses (days 0, 11, 22), bioluminescence) came to 69%. In addition, in data set [4] (systemic administration), the “tumor reduction compared to untreated control” value was “did not exhibit significant tumor volume reduction”.

With “NH2—CGGGGAEYLR-COOH (H-CGGGGAEYLR-OH) [EGFmp, EGF mimicking peptide modified with four glycine residues terminated with a cysteine]”, in data set [5], the “blocking of EGF-mediated EGFR activation” value was “did not behave as an EGF antagonist”. For the same molecule, the “EGFR phosphorylation / pathway activation” value in data set [6] was “none were observed”.

For the origin of these results see patent US20190142953A1, “Dendrimer-Drug Conjugates, Hydrogel Compositions, and Methods” (Massachusetts Institute of Technology, priority 2016, published 2019).
